Assay results taken from patent publication US7704995B2 (Exelixis, Inc., priority 2003, dated 2010).

Each molecule was assayed against T1, Chk1 (Homo sapiens, UniProt O14757) (assay: Chk1 kinase assay: incorporation of γ-33P ATP into immobilized myelin basic protein). Settings: Table 11, Chk1 only; class symbols A-D; read-out: Chk1 IC50.
T1 construct: purchased Upstate Biotechnology
T1 sequence (O14757 1-476): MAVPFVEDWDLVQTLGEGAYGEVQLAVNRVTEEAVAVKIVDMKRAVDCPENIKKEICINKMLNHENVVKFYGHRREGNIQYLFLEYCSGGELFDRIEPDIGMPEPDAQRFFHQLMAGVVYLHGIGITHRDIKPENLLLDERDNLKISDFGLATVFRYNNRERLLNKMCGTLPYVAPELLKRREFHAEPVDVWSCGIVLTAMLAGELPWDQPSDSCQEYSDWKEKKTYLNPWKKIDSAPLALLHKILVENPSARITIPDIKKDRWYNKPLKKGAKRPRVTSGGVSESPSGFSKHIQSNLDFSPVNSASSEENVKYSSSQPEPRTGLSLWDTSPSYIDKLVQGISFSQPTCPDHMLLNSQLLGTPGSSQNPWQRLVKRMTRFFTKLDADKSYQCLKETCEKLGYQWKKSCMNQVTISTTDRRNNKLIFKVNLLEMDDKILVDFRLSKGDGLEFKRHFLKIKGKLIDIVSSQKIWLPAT
Assay type: biochemical
How it was run: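 Read-out is scintillation counting of 33P incorporated into plate-bound myelin basic protein. Chk1 runs at 10 nM enzyme with 10 μM ATP, Chk2 at 20 nM with 30 μM ATP, each for 1 hour at room temperature. Duplicate points; IC50 taken as 50% activity reduction, Ki computed from IC50.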

Row | IC50 [nM] | SMILES
1 | < 50 | Nc1ncc(-c2cccc(C(=O)NCc3cccc(Cl)c3Cl)c2)nc1C(=O)N[C@H]1CCCNC1 [Example 1003, 3-amino-6-[3-({[(2,3-dichlorophenyl)methyl]amino}carbonyl)phenyl]-N-[(3S)-piperidin-3-yl]pyrazine-2-carboxamide]
2 | < 50 | Nc1ncc(-c2cccc(C(=O)NCc3ccc(Br)cc3)c2)nc1C(=O)N[C@H]1CCCNC1 [Example 870, 3-amino-6-[3-({[(4-bromophenyl)methyl]amino}carbonyl)phenyl]-N-[(3S)-piperidin-3-yl]pyrazine-2-carboxamide]
3 | < 50 | Nc1ncc(-c2cccc(NC(=O)Cc3cc(C(F)(F)F)cc(C(F)(F)F)c3)c2)nc1C(=O)N[C@H]1CCCNC1 [Example 913, 3-amino-6-[3-({[3,5-bis(trifluoromethyl)phenyl]acetyl}amino)phenyl]-N-[(3S)-piperidin-3-yl]pyrazine-2-carboxamide]
4 | < 50 | Nc1ncc(-c2cccc(C(=O)NC[C@@H]3CCNC3)c2)nc1C(=O)N[C@H]1CCCNC1 [Example 875, 3-amino-N-[(3S)-piperidin-3-yl]-6-[3-({[(3R)-pyrrolidin-3-ylmethyl]amino}carbonyl)phenyl]pyrazine-2-carboxamide]
5 | < 50 | Nc1ncc(-c2cccc(CNS(=O)(=O)c3ccc(Cl)cc3)c2)nc1C(=O)N[C@H]1CCCNC1 [Example 955, 3-amino-6-[3-({[(4-chlorophenyl)sulfonyl]amino}methyl)phenyl]-N-[(3S)-piperidin-3-yl]pyrazine-2-carboxamide]
6 | < 50 | Nc1ncc(-c2cccc(OCCN3CCN(c4ccccc4)CC3)c2)nc1C(=O)N[C@H]1CCCNC1 [Example 894, 3-amino-6-(3-{[2-(4-phenylpiperazin-1-yl)ethyl]oxy}phenyl)-N-[(3S)-piperidin-3-yl]pyrazine-2-carboxamide]

Same assay, conditions: Table 11; Chk1 only; read-out: Chk1 IC50

Row | SMILES | IC50 [nM]
7 | Nc1ncc(-c2cccc(CN[C@H]3CCc4ccccc43)c2)nc1C(=O)NCCc1c[nH]cn1 [Example 558, 3-amino-6-(3-{[(1S)-2,3-dihydro-1H-inden-1-ylamino]methyl}phenyl)-N-[2-(1H-imidazol-4-yl)ethyl]pyrazine-2-carboxamide] | < 50
8 | CNC(=O)c1nc(-c2cccc(CN[C@H]3CCc4cc(F)cc(F)c43)c2)cnc1N [Example 483, 3-amino-6-[3-({[(1S)-5,7-difluoro-2,3-dihydro-1H-inden-1-yl]amino}methyl)phenyl]-N-methylpyrazine-2-carboxamide] | 50 to 1000
9 | CC(C)(C)OC(=O)N1CCN(C(=O)c2nc(-c3cccc(C(=O)NCc4ccccc4)c3)cnc2N)CC1 [Example 592, 1,1-dimethylethyl 4-{[3-amino-6-(3-{[(phenylmethyl)amino]carbonyl}phenyl)pyrazin-2-yl]carbonyl}piperazine-1-carboxylate] | ≥ 10000
10 | COC[C@H]1CCCN1/N=C(\C)c1nc(-c2cccc(C(=O)NCc3ccccc3)c2)cnc1N [Example 673, 3-[5-amino-6-((1E)-N-{(2R)-2-[(methyloxy)methyl]pyrrolidin-1-yl}ethanimidoyl)pyrazin-2-yl]-N-(phenylmethyl)benzamide] | 50 to 1000
11 | Nc1ncc(-c2cccc(C(=O)N[C@H]3CCc4ccccc43)c2)nc1C(=O)N[C@H]1CCN(C(=O)c2ccncc2)C1 [Example 649, 3-amino-6-(3-{[(1S)-2,3-dihydro-1H-inden-1-ylamino]carbonyl}phenyl)-N-[(3S)-1-(pyridin-4-ylcarbonyl)pyrrolidin-3-yl]pyrazine-2-carboxamide] | ≥ 10000

Now from value to molecule:

Row | IC50 [nM] | SMILES
12 | 50 to 1000 | CC(C)(C)OC(=O)N1CCC[C@H](NC(=O)c2nc(-c3cccc(C(=O)N[C@H]4CCc5ccccc54)c3)cnc2N)C1 [Example 776, 1,1-dimethylethyl (3S)-3-({[3-amino-6-(3-{[(1S)-2,3-dihydro-1H-inden-1-ylamino]carbonyl}phenyl)pyrazin-2-yl]carbonyl}amino)piperidine-1-carboxylate]
13 | < 50 | Nc1ncc(-c2cccc(C(=O)N[C@@H]3c4ccccc4C[C@@H]3O)c2)nc1C(=O)NC1CCCNCC1 (stereo partly drawn) [Example 782, 3-amino-N-azepan-4-yl-6-[3-({[(1R,2S)-2-hydroxy-2,3-dihydro-1H-inden-1-yl]amino}carbonyl)phenyl]pyrazine-2-carboxamide]
14 | < 50 | Nc1ncc(-c2cccc(C(=O)N[C@@H]3c4ccccc4C[C@@H]3O)c2)nc1C(=O)NC1CCCNC1 (stereo partly drawn) [Example 766, 3-amino-6-[3-({[(1R,2S)-2-hydroxy-2,3-dihydro-1H-inden-1-yl]amino}carbonyl)phenyl]-N-piperidin-3-ylpyrazine-2-carboxamide]
15 | 1000 to 10000 | Nc1ncc(-c2cccc(C(=O)NCc3ccccc3)c2)nc1/C=N/O [Example 681, 3-{5-amino-6-[(E)-(hydroxyimino)methyl]pyrazin-2-yl}-N-(phenylmethyl)benzamide]
16 | 50 to 1000 | CCn1nc(-c2nc(-c3cccc(C(=O)N[C@@H]4CCc5ccccc54)c3)cnc2N)nc1C1CCCNC1 (stereo partly drawn) [Example 734, 3-[5-amino-6-(1-ethyl-5-piperidin-3-yl-1H-1,2,4-triazol-3-yl)pyrazin-2-yl]-N-[(1R)-2,3-dihydro-1H-inden-1-yl]benzamide]
17 | 1000 to 10000 | N=C(N)c1nc(-c2cccc(C(=O)N[C@H]3CCc4ccccc43)c2)cnc1N [Example 774, 3-{5-amino-6-[amino(imino)methyl]pyrazin-2-yl}-N-[(1S)-2,3-dihydro-1H-inden-1-yl]benzamide]
18 | < 50 | Nc1ncc(-c2cccc(CN[C@H]3CCc4ccccc43)c2)nc1-c1nc(-c2ccncc2)n[nH]1 [Example 723, 5-(3-{[(1S)-2,3-dihydro-1H-inden-1-ylamino]methyl}phenyl)-3-(3-pyridin-4-yl-1H-1,2,4-triazol-5-yl)pyrazin-2-amine]
19 | ≥ 10000 | Cc1nc(-c2nc(-c3cccc(C(=O)N[C@H]4CCc5ccccc54)c3)cnc2N)nn1C [Example 799, 3-[5-amino-6-(1,5-dimethyl-1H-1,2,4-triazol-3-yl)pyrazin-2-yl]-N-[(1S)-2,3-dihydro-1H-inden-1-yl]benzamide]
20 | < 50 | Nc1ncc(-c2cccc(C(=O)N[C@H]3CCc4ccccc43)c2)nc1C(=O)NC1CCCNC1 (stereo partly drawn) [Example 729, 3-amino-6-(3-{[(1S)-2,3-dihydro-1H-inden-1-ylamino]carbonyl}phenyl)-N-piperidin-3-ylpyrazine-2-carboxamide]

Same assay, conditions: read-out: Chk1 IC50

Row | IC50 [nM] | SMILES
21 | < 50 | CNC(=O)c1nc(-c2cccc(CNC(=O)c3ccc(I)cc3)c2)cnc1N [Example 350, 3-amino-6-[3-({[(4-iodophenyl)carbonyl]amino}methyl)phenyl]-N-methylpyrazine-2-carboxamide]
22 | 50 to 1000 | CNC(=O)c1nc(-c2cccc(C(=O)NCc3ccc(Br)cc3F)c2)cnc1N [Example 260, 3-amino-6-[3-({[(4-bromo-2-fluorophenyl)methyl]amino}carbonyl)phenyl]-N-methylpyrazine-2-carboxamide]
23 | 50 to 1000 | CNC(=O)c1nc(-c2cccc(CN[C@@H]3CCc4ccccc43)c2)cnc1N [Example 417, 3-amino-6-(3-{[(1R)-2,3-dihydro-1H-inden-1-ylamino]methyl}phenyl)-N-methylpyrazine-2-carboxamide]
24 | 50 to 1000 | CNC(=O)c1nc(-c2cccc(C(=O)NCc3cc(Br)ccc3F)c2)cnc1N [Example 256, 3-amino-6-[3-({[(5-bromo-2-fluorophenyl)methyl]amino}carbonyl)phenyl]-N-methylpyrazine-2-carboxamide]
25 | 50 to 1000 | CNC(=O)c1nc(-c2cccc(C(=O)NCc3cccc(Cl)c3C)c2)cnc1N [Example 293, 3-amino-6-[3-({[(3-chloro-2-methylphenyl)methyl]amino}carbonyl)phenyl]-N-methylpyrazine-2-carboxamide]
26 | 1000 to 10000 | CNC(=O)c1nc(-c2cccc(NC(=O)OC(C)(C)C)c2)cnc1N [Example 321, 1,1-dimethylethyl (3-{5-amino-6-[(methylamino)carbonyl]pyrazin-2-yl}phenyl)carbamate]
27 | 50 to 1000 | CNC(=O)c1nc(-c2cccc(C(=O)NCc3cccc(-c4ccccc4)c3)c2)cnc1N [Example 224, 3-amino-6-(3-{[(biphenyl-3-ylmethyl)amino]carbonyl}phenyl)-N-methylpyrazine-2-carboxamide]
28 | 50 to 1000 | CNC(=O)c1nc(-c2cccc(C(=O)NCc3cccc(Cl)c3Cl)c2)cnc1N [Example 274, 3-amino-6-[3-({[(2,3-dichlorophenyl)methyl]amino}carbonyl)phenyl]-N-methylpyrazine-2-carboxamide]
29 | 50 to 1000 | CNC(=O)c1nc(-c2cccc(C(=O)NCc3cc(Cl)ccc3C)c2)cnc1N [Example 213, 3-amino-6-[3-({[(5-chloro-2-methylphenyl)methyl]amino}carbonyl)phenyl]-N-methylpyrazine-2-carboxamide]
30 | 50 to 1000 | CNC(=O)c1nc(-c2cncc(C(=O)NCc3ccccc3)c2)cnc1N [Example 349, 3-amino-N-methyl-6-(5-{[(phenylmethyl)amino]carbonyl}pyridin-3-yl)pyrazine-2-carboxamide]
31 | 50 to 1000 | CNC(=O)c1nc(-c2cccc(C(=O)NCC3CCN(Cc4ccccc4)C3)c2)cnc1N (stereo not shown) [Example 394, 3-amino-N-methyl-6-{3-[({[1-(phenylmethyl)pyrrolidin-3-yl]methyl}amino)carbonyl]phenyl}pyrazine-2-carboxamide]
